Source: patent publication US20090042879A1, “PHTHALAZINONE DERIVATIVES AND PHARMACEUTICAL COMPOSITIONS COMPRISING THE SAME” (NIPPON SHINYAKU CO., LTD., priority 2005, published 2009)

Experiments:
[1] = system: TNF-α production from rat whole blood cells stimulated with LPS; test: TNF-α production-suppressing activity in LPS-stimulated rat whole blood (ELISA); type: cell-based; settings: 37° C. for 5 hours
Experimental: The activity of a test compound to suppress TNF-α production from rat whole blood cells stimulated with LPS was evaluated in the manner mentioned below (J. Pharmacol. Exp. Ther., 302, 390-396, 2000).
Under anesthesia with ether, a proper amount of blood was taken out from a 10-week male SD rat (♂, 10-week old) through its abdominal vein into a tube with EDTA (1.6 mg/mL) therein. A test compound was dissolved in dimethyl sulfoxide to prepare its 10^−2 M solution, which was diluted before use. 80 μL of rat blood was dispensed into each well of a 96-well plate, then 10 μL of the test compound solution was added thereto, and incubated at 37° C. in 5% CO2 for 30 minutes. The test compound and the blood were well mixed, then 10 μL of LPS (100 μg/mL) was added thereto, and incubated at 37° C. in 5% CO2 for 5 hours. Further, 100 μL of PBS was added to each well, then the plate was centrifuged at 4000 rpm for 2 minutes to collect the supernatant, and this was frozen and stored at −80° C. until its use for analysis. The amount of TNF-α production was measured through ELISA. IC50 for TNF-α production-suppressing activity was calculated as the test compound concentration for 50% inhibition of TNF-α production.
As a control compound, the above-mentioned known compound (compound of general formula [A] in which R is a carboxyl group, cis-4-[4-(3,4-dimethoxyphenyl)-1-oxo-4a,5,8,8a-tetrahydro-1H-phthalazin-2-yl-methyl]benzoic acid (hereinafter referred to as control compound A)) was used.

[2] = Metabolism by human liver microsome; type: in vitro ADME; settings: NADPH producing system, 37° C., 10 minutes after start of incubation
Experimental: The metabolic characteristics of a test compound were investigated, using human liver microsome.
400 μL of EP buffer (0.25 mM EDTA, 0.25 M potassium phosphate buffer, pH 7.4), 50 μL of 20 mg/mL human liver microsome fraction (by KAC), 350 μl of pure water and 100 μL of 1×10^−4 M test compound were put into a 1.5 mL microtube, and preincubated at 37° C. for 5 minutes. 100 μL of an NADPH producing system (containing 20 mg of NADP+, 70 mg of G6P, 40 units of G6PDH, 20 mg of magnesium chloride hexahydrate in 1 mL of pure water) was added to it, and incubated. To 100 μL of the sample taken at 10 minutes after the start of the incubation, added was the same amount of acetonitrile, and the reaction was thereby stopped. […] 20 μL of the supernatant was led into a high-performance liquid chromatography (Shimadzu'sSPD-10A, LC-10AS, CTO-10A, C-R6A), and the peak area of the test compound at 320 nm was measured, using a C18 column (Cadenza, CD-C18, 75×4.6 mm). […] Under the condition, the peak area of the test compound was measured. The metabolic rate was calculated as follows: 100 μL of acetonitrile was added to 90 μL of the above pre-incubated solution, and then 10 μl of the NADPH producing system was added thereto, and the resulting solution was analyzed for the peak area of the test compound. Based on it, the metabolic rate in 10 minutes after the incubation was calculated.

TNCB-induced dermatitis = test: Dermatitis inhibitory effect in trinitrochlorobenzene (TNCB)-induced dermatitis model; type: in vivo, BALB/C mouse; settings: 20 mg of 1.0% test compound/vaseline ointment on right pinna, five times in 1 week; pinna thickness 6 hours after last application
Experimental: The dermatitis inhibitory effect of a test compound was investigated, using a trinitrochlorobenzene (TNCB)-induced dermatitis model (J. Invest. Dermatol., 105, 749-755, 1995, J. Immuno., 159, 2484-2491, 1997).
20 μL of 1% (w/v) TNCB/acetone solution was applied dropwise to both sides of the right pinna of a BALB/C mouse (♂, 8-week old), whereby the mouse was sensitized. From day 7 after the sensitization with TNCB, 1% TNCB/acetone solution was applied to both sides of the right pinna of the mouse every other day at 3 times/week, for 3 weeks in total. TNCB was applied for 2 weeks so as to fully induce dermatitis in the mouse, and then 20 mg of 1.0% test compound/vaseline ointment was applied to both sides of the right pinna five times in total for 1 week. At 6 hours after the last application, the thickness of the right pinna of the mouse was measured, and the effect of the test compound on dermatitis was thus evaluated. The inhibitory rate was calculated according to the following formula.
Inhibitory Rate (%)={1−[mean thickness of inflamed pinna (right ear) of chemical-treated group−mean thickness of non-inflamed pinna (left ear) of the group]/[mean thickness of inflamed pinna (right ear) of diseased control group−mean thickness of non-inflamed pinna (left ear) of the group]}×100.

human recombinant PDE4D = target: T1, human recombinant PDE4D (Homo sapiens, UniProt Q08499); test: PDE4 inhibitory activity (cAMP hydrolysis, HitHunter cAMP II chemiluminescent kit); type: biochemical; settings: 5 ng human recombinant PDE4D, 1 pmol cAMP, 30° C. for 30 minutes
T1 construct: purchased ABNOVA H00005144-P01
T1 sequence (Q08499 whole entry): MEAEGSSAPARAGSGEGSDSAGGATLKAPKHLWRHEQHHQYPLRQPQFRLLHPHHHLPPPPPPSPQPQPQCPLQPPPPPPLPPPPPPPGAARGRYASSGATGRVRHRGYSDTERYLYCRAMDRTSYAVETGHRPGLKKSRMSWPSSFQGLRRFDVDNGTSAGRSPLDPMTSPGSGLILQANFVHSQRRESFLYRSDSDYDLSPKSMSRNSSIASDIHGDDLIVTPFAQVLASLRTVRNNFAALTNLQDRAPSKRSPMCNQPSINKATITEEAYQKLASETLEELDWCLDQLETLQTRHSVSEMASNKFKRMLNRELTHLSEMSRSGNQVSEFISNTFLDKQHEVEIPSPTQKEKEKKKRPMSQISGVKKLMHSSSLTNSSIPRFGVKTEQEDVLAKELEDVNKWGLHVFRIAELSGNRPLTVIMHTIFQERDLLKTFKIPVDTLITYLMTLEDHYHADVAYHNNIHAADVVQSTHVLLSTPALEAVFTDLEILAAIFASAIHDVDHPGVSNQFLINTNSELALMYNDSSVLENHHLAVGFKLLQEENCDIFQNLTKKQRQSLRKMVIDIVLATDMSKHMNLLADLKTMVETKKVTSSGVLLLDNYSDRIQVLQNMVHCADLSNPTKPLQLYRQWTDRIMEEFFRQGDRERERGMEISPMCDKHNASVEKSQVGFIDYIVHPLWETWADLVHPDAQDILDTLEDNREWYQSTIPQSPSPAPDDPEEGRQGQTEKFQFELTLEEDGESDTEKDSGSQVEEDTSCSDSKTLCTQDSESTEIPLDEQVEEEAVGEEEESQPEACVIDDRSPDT
Experimental: The activity of a test compound to inhibit human PDE4 was evaluated in the manner mentioned below.
In the presence of a test compound (10^−7 to 10^−12 M), 1 pmol of cAMP was hydrolyzed through incubation with 5 ng of human recombinant PDE4D (ABNOVA's #H00005144-P01, Lot. FAK0050713Jb01, Taiwan) at 30° C. for 30 minutes. After the hydrolysis, the cAMP concentration was measured with a chemiluminescent kit, HitHunter cAMP II Assay Kit (by Amersham Bioscience).

[3] = Rattus norvegicus, Whole blood cell, 5 h

| Compound | IC50 ([1]; Whole blood cell) [µM] | Metabolic Rate (%) [2] [%] | Dermatitis Inhibitory Percentage (%) (TNCB-induced dermatitis) | IC50 (human recombinant PDE4D) [µM] | IC50 ([1]; monomaleate) [µM] | IC50 [1, 3] [µM] |
| --- | --- | --- | --- | --- | --- | --- |
| COc1ccc(C2=NN(Cc3ccc(CN4CCOCC4)cc3)C(=O)C3CC=CCC23)cc1OC (single isomer, unassigned) [Example 2-1, cis-(+)-4-(3,4-Dimethoxyphenyl)-2-[4-(morpholin-4-ylmethyl)benzyl]-4a,5,8,8a-tetrahydro-2H-phthalazin-1-one] | 0.0024 | 61.5 | 38.5 |  |  |  |
| COc1ccc(C2=NN(Cc3cccc(CN4CCOCC4)c3)C(=O)[C@H]3CC=CC[C@@H]23)cc1OC (relative stereo) [Example 10, cis-4-(3,4-Dimethoxyphenyl)-2-[3-(morpholin-4-ylmethyl)benzyl]-4a,5,8,8a-tetrahydro-2H-phthalazin-1-one] | 0.107 |  | 31.1 | 0.02 |  |  |
| COc1ccc(C2=NN(Cc3ccc(C(=O)O)cc3)C(=O)[C@H]3CC=CC[C@@H]23)cc1OC (relative stereo) [control compound A, cis-4-[4-(3,4-dimethoxyphenyl)-1-oxo-4a,5,8,8a-tetrahydro-1H-phthalazin-2-yl-methyl]benzoic acid, reference compound] | 133 | 35.2 | 2.6 |  |  |  |
| COc1ccc(C2=NN(Cc3ccc(CN4CCOCC4)cc3)C(=O)C3CC=CCC23)cc1OC (single isomer, unassigned) [Example 2-2, cis-(+)-4-(3,4-Dimethoxyphenyl)-2-[4-(morpholin-4-ylmethyl)benzyl]-4a,5,8,8a-tetrahydro-2H-phthalazin-1-one monomaleate] |  |  |  | 0.00079 | 0.0011 |  |
| COc1ccc(C2=NN(Cc3cccc(CN4CCNC(=O)C4)c3)C(=O)[C@H]3CC=CC[C@@H]23)cc1OC (relative stereo) [Example 20, cis-(+)-4-(3,4-dimethoxyphenyl)-2-[3-(3-oxopiperazin-1-ylmethyl)benzyl]-4a,5,8,8a-tetrahydro-2H-phthalazin-1-one] | 0.019 |  |  |  |  |  |
| COc1ccc(C2=NN(Cc3ccc(CN4CCC(=O)CC4)cc3)C(=O)[C@H]3CC=CC[C@@H]23)cc1OC (relative stereo) [Example 6, cis-4-(3,4-Dimethoxyphenyl)-2-[4-(4-oxopiperidin-1-ylmethyl)benzyl]-4a,5,8,8a-tetrahydro-2H-phthalazin-1-one] |  |  | 36.8 | 0.0013 |  | 0.084 |
| COc1ccc(C2=NN(Cc3ccc(N4CCOCC4)cc3)C(=O)[C@H]3CC=CC[C@@H]23)cc1OC (relative stereo) [Example 24, cis-4-(3,4-Dimethoxyphenyl)-2-(4-morpholin-4-ylbenzyl)-4a,5,8,8a-tetrahydro-2H-phthalazin-1-one] | 0.012 |  |  |  |  |  |
| COc1ccc(C2=NN(Cc3ccc(CN4CCOCC4)cc3)C(=O)[C@H]3CCCC[C@@H]23)cc1OC (relative stereo) [Example 13, cis-4-(3,4-Dimethoxyphenyl)-2-[4-(morpholin-4-ylmethyl)benzyl]-4a,5,6,7,8,8a-hexahydro-2H-phthalazin-1-one] | 0.059 |  | 33.2 | 0.005 |  |  |
| COc1ccc(C2=NN(Cc3ccc(Cn4ccnc4)cc3)C(=O)[C@H]3CC=CC[C@@H]23)cc1OC (relative stereo) [Example 9, cis-4-(3,4-Dimethoxyphenyl)-2-[4-(imidazol-1-ylmethyl)benzyl]-4a,5,8,8a-tetrahydro-2H-phthalazin-1-one] |  |  |  | 0.025 |  | 0.001 |
| COc1ccc(C2=NN(Cc3ccc(CN4CCOCC4)cc3)C(=O)C3CC=CCC23)cc1OC (stereo not drawn) [Example 1, cis-4-(3,4-Dimethoxyphenyl)-2-[4-(morpholin-4-ylmethyl)benzyl]-4a,5,8,8a-tetrahydro-2H-phthalazin-1-one] |  |  | 31.2 | 0.063 |  | 0.0043 |
| COc1ccc(C2=NN(Cc3ccc(C[N+]4([O-])CCOCC4)cc3)C(=O)[C@H]3CC=CC[C@@H]23)cc1OC (relative stereo) [Example 21, cis-(+)-4-{4-[4-(3,4-dimethoxyphenyl)-1-oxo-4a,5,8,8a-tetrahydro-1H-phthalazin-2-ylmethyl]benzyl}morpholine 4-oxide] | 0.012 |  |  |  |  |  |
| COc1ccc(C2=NN(Cc3ccc(CN4CCC5(CC4)OCCO5)cc3)C(=O)[C@H]3CC=CC[C@@H]23)cc1OC (relative stereo) [Example 5, cis-4-(3,4-Dimethoxyphenyl)-2-[4-(1,4-dioxa-8-azaspiro[4,5]dec-8-ylmethyl)benzyl]-4a,5,8,8a-tetrahydro-2H-phthalazin-1-one] | 0.199 |  | 20.2 | 0.02 |  |  |
| COc1ccc(C2=NN(Cc3ccc(CN4CCNC(=O)C4)cc3)C(=O)[C@H]3CC=CC[C@@H]23)cc1OC (relative stereo) [Example 16, cis-(+)-4-(3,4-Dimethoxyphenyl)-2-[4-(3-oxopiperazin-1-ylmethyl)benzyl]-4a,5,8,8a-tetrahydro-2H-phthalazin-1-one] | 0.0049 |  |  |  |  |  |
